Assay results reported in PubChem BioAssay (NCI).
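Each compound was tested at five concentrations against cells in 96-well plates for 48 hours. At the TGI there is no net growth.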

Tests used:
Assay in all cases: inhibition of tumour cell growth, NCI panel, 48 h
HT29 colon = system: HT29 colon
OVCAR-3 ovarian = system: OVCAR-3 ovarian
M19-MEL melanoma = system: M19-MEL melanoma
SK-MEL-5 melanoma = system: SK-MEL-5 melanoma
M14 melanoma = system: M14 melanoma
SK-MEL-2 melanoma = system: SK-MEL-2 melanoma
XF 498 CNS = system: XF 498 CNS
UACC-62 melanoma = system: UACC-62 melanoma
UO-31 renal = system: UO-31 renal
IGROV1 ovarian = system: IGROV1 ovarian
A498 renal = system: A498 renal
RPMI-8226 leukemia = system: RPMI-8226 leukemia
HOP-18 NSCLC = system: HOP-18 NSCLC
SF-539 CNS = system: SF-539 CNS
KM20L2 colon = system: KM20L2 colon
U251 CNS = system: U251 CNS
NCI-H23 lung = system: NCI-H23 lung
ACHN renal = system: ACHN renal
SN12C renal = system: SN12C renal
MALME-3M melanoma = system: MALME-3M melanoma
MOLT-4 leukemia = system: MOLT-4 leukemia
OVCAR-8 ovarian = system: OVCAR-8 ovarian
OVCAR-5 ovarian = system: OVCAR-5 ovarian
SK-MEL-28 melanoma = system: SK-MEL-28 melanoma
CAKI-1 renal = system: CAKI-1 renal
NCI-H522 lung = system: NCI-H522 lung
COLO 205 colon = system: COLO 205 colon
786-0 renal = system: 786-0 renal
SNB-78 CNS = system: SNB-78 CNS
HOP-92 NSCLC = system: HOP-92 NSCLC
HCT-116 colon = system: HCT-116 colon
SW-620 colon = system: SW-620 colon
HCT-15 colon = system: HCT-15 colon
NCI-H460 lung = system: NCI-H460 lung
KM12 colon = system: KM12 colon
DLD-1 colon = system: DLD-1 colon
K-562 leukemia = system: K-562 leukemia
UACC-257 melanoma = system: UACC-257 melanoma
EKVX NSCLC = system: EKVX NSCLC
CCRF-CEM leukemia = system: CCRF-CEM leukemia
RXF 393 renal = system: RXF 393 renal
NCI-H226 lung = system: NCI-H226 lung
SF-268 CNS = system: SF-268 CNS
DMS 273 small cell lung = system: DMS 273 small cell lung
DMS 114 small cell lung = system: DMS 114 small cell lung
SK-OV-3 ovarian = system: SK-OV-3 ovarian
SNB-75 CNS = system: SNB-75 CNS
TK-10 renal = system: TK-10 renal
SNB-19 CNS = system: SNB-19 CNS
OVCAR-4 ovarian = system: OVCAR-4 ovarian
LOX IMVI melanoma = system: LOX IMVI melanoma
LXFL 529 NSCLC = system: LXFL 529 NSCLC
A549 NSCLC = system: A549 NSCLC
RXF-631 renal = system: RXF-631 renal
HOP-62 NSCLC = system: HOP-62 NSCLC
SR leukemia = system: SR leukemia
SF-295 CNS = system: SF-295 CNS
HL-60(TB) leukemia = system: HL-60(TB) leukemia
HCC-2998 colon = system: HCC-2998 colon

Measured: TGI

COc1ccccc1/C=C(\NC(=O)c1ccccc1)c1nc2ccc(Cl)cc2[nH]1
82.6 µM: HOP-18 NSCLC
46.6 µM: UO-31 renal
89.5 µM: XF 498 CNS
84 µM: SK-OV-3 ovarian
73 µM: OVCAR-8 ovarian
69.3 µM: NCI-H23 lung
49.6 µM: OVCAR-3 ovarian
62.9 µM: LXFL 529 NSCLC
55.3 µM: UACC-62 melanoma
87.1 µM: 786-0 renal
33.7 µM: SK-MEL-5 melanoma
70.2 µM: A549 NSCLC
49.5 µM: NCI-H522 lung
54.9 µM: MOLT-4 leukemia
52.7 µM: DMS 114 small cell lung
70.7 µM: SNB-75 CNS
67.8 µM: ACHN renal
65.7 µM: SK-MEL-2 melanoma
88.9 µM: DLD-1 colon
38.8 µM: COLO 205 colon
73.7 µM: TK-10 renal
56.8 µM: HOP-92 NSCLC
78.7 µM: EKVX NSCLC
80.9 µM: A498 renal
58 µM: NCI-H226 lung
38.5 µM: RPMI-8226 leukemia
74.4 µM: CAKI-1 renal
not listed: RXF-631 renal | HOP-62 NSCLC | SR leukemia | SF-295 CNS | HL-60(TB) leukemia | HCC-2998 colon
> 100 µM: all other assays above

Cc1nc2ccncc2[nH]1
not listed: RPMI-8226 leukemia | HOP-18 NSCLC | NCI-H522 lung | SNB-78 CNS | HOP-92 NSCLC | KM12 colon | SK-OV-3 ovarian
> 100 µM: all other assays above

Cc1ccc(-n2nc(C(OC3OC(CO)C(O)C(O)C3O)C(O)CO)c3nc4cc(C)c(C)cc4nc32)cc1 (stereo not drawn)
not listed: SK-MEL-5 melanoma | SK-MEL-2 melanoma | IGROV1 ovarian | HOP-18 NSCLC | CAKI-1 renal | COLO 205 colon | HOP-92 NSCLC | SW-620 colon | NCI-H226 lung | DMS 273 small cell lung | A549 NSCLC | SR leukemia | HL-60(TB) leukemia
> 100 µM: all other assays above

CS(=O)(=O)OCCN1CCN(C(=O)c2ccc(Cl)c3c(Nc4ccc(S(=O)(=O)N=C(N)N)cc4)c4ccccc4nc23)CC1
not listed: HOP-18 NSCLC | NCI-H522 lung | SNB-78 CNS | SW-620 colon | EKVX NSCLC | LOX IMVI melanoma | LXFL 529 NSCLC
> 100 µM: all other assays above
